Reference: publication PMC2801808 (Journal of medicinal chemistry, 2009)
pIC50: −log10 of the molar value.

Key:
[1] = no reference given; cited from earlier work
[2] = system: calpain; settings: cited from earlier work
[3] = biological target: T1, purified calpain 1 (Homo sapiens, UniProt P07384); assay: Calpain 1 activity, sLLVY-AMC hydrolysis with purified calpain 1; format: biochemical
T1 sequence (P07384 1-714): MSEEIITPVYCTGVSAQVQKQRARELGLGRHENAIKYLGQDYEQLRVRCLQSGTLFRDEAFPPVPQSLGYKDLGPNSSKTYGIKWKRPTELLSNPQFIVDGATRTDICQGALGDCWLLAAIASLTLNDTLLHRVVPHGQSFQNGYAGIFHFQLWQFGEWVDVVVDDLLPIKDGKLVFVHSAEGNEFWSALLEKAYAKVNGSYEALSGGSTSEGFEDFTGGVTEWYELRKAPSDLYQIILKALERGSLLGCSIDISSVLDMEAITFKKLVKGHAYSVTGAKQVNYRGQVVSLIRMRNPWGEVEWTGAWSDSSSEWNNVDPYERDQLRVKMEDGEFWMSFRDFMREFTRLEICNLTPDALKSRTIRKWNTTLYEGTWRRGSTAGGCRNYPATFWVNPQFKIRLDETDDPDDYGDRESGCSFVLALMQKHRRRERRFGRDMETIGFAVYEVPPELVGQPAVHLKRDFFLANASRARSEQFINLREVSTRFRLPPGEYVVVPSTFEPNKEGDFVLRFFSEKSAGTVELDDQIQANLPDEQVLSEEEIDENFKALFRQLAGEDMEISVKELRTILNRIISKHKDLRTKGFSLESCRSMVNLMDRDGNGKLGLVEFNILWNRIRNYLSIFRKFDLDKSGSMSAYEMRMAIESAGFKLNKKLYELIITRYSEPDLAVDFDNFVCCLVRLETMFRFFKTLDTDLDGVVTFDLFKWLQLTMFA
T1 sequence (P04632 1-268 partner): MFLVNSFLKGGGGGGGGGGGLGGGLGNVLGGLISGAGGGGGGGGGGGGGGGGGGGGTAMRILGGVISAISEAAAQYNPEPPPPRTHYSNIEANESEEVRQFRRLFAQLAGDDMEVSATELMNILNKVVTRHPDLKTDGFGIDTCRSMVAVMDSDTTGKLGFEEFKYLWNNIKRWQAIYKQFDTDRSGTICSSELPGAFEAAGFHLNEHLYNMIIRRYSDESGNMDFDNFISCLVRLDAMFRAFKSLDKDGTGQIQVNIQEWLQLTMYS

[4] = system: NDUFV2 cleavage; assay: Ca2+-induced cleavage of complex I subunit NDUFV2 in isolated mitochondria; set-up: species or system rabbit; settings: 10 μM pretreatment, then Ca2+ 1 μM for 5 min
[5] = system: state 3 respiration of renal cortical mitochondria; assay: Ca2+-induced attenuation of state 3 respiration in isolated mitochondria; set-up: species or system rabbit; settings: 10 μM pretreatment, then Ca2+ 1 μM for 5 min
[6] = biological target: T2, calpain 2 (Sus scrofa, UniProt A6YNL5); assay: Calpain 2 inhibition; format: biochemical, porcine
T2 sequence (A6YNL5 1-700): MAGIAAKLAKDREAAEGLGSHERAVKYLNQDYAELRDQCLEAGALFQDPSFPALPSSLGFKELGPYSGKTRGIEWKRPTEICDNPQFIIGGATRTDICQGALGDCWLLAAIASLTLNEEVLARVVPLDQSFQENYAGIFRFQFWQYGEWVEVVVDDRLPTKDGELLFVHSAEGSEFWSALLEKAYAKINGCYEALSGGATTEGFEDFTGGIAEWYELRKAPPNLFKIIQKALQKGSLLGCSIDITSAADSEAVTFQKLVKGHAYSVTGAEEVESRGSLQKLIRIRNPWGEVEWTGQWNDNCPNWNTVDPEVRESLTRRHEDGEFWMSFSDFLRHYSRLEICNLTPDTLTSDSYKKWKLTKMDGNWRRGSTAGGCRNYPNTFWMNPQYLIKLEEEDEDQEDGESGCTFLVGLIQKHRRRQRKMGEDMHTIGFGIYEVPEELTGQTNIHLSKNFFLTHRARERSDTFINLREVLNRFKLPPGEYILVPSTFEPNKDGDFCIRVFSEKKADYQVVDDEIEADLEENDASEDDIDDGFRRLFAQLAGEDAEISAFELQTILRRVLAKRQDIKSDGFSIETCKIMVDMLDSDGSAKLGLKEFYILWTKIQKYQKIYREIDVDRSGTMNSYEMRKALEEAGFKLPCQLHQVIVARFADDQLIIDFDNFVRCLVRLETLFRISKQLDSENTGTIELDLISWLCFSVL
T2 sequence (P04574 1-266 partner): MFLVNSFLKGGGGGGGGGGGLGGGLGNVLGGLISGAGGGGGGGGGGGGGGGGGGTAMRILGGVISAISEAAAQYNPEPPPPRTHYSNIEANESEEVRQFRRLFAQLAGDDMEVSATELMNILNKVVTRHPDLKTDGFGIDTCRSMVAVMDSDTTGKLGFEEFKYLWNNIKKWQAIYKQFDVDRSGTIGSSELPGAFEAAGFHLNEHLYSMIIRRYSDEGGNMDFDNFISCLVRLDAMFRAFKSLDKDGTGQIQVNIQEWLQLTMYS

Structure (SMILES) | thiol pKa [1] | selectivity for calpain over cathepsin B [2] [fold] | further results
COc1ccc(S)cc1 [methoxythiophenol] | 6.8 |  | 
O=C(O)/C(S)=C/c1ccc(I)cc1 [PD150606] |  | 600 | 
CCCC[C@@H](C=O)NC(=O)[C@H](CC(C)C)NC(=O)OCc1ccccc1 [Calpeptin, Z-Leu-Nle-CHO] |  |  | pIC50 [3]: ~7.40; Ca2+-induced cleavage of complex I subunit NDUFV2 [4]: blocked; Ca2+-induced attenuation of state 3 respiration [5]: blocked; pIC50 [6]: ~7.22
O=C(O)/C(S)=C/c1c[nH]c2ccc(F)cc12 [PD151746] |  | 600 | 
CCS [ethanethiol] | 10.61 |  | 
